Laboratory results taken from PubChem BioAssay (NCI).
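Grown in 96-well plates, cells were treated for 48 hours with each compound at five concentrations. Insufficient inhibition: endpoint recorded as highest concentration tested. Abbreviation: GI50, concentration required for 50% inhibition of growth. TGI denotes the concentration required for complete inhibition of growth.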

Legend:
Assay in all cases: growth of human tumour cells (NCI), 48 h
ACHN renal = test system: ACHN renal
MDA-MB-231 breast = test system: MDA-MB-231 breast
PC-3 prostate = test system: PC-3 prostate
DU-145 prostate = test system: DU-145 prostate
HOP-62 NSCLC = test system: HOP-62 NSCLC
T-47D breast = test system: T-47D breast
UACC-62 melanoma = test system: UACC-62 melanoma
HL-60(TB) leukemia = test system: HL-60(TB) leukemia
SNB-75 CNS = test system: SNB-75 CNS
SK-OV-3 ovarian = test system: SK-OV-3 ovarian
SF-539 CNS = test system: SF-539 CNS
RXF 393 renal = test system: RXF 393 renal
NCI-H522 lung = test system: NCI-H522 lung
MALME-3M melanoma = test system: MALME-3M melanoma
SK-MEL-5 melanoma = test system: SK-MEL-5 melanoma
EKVX NSCLC = test system: EKVX NSCLC
MDA-MB-435 = test system: MDA-MB-435
SK-MEL-28 melanoma = test system: SK-MEL-28 melanoma
A498 renal = test system: A498 renal
SN12C renal = test system: SN12C renal
RPMI-8226 leukemia = test system: RPMI-8226 leukemia
CCRF-CEM leukemia = test system: CCRF-CEM leukemia
TK-10 renal = test system: TK-10 renal
MOLT-4 leukemia = test system: MOLT-4 leukemia
SK-MEL-2 melanoma = test system: SK-MEL-2 melanoma
NCI/ADR-RES ovarian = test system: NCI/ADR-RES ovarian
OVCAR-5 ovarian = test system: OVCAR-5 ovarian
SF-295 CNS = test system: SF-295 CNS
NCI-H226 lung = test system: NCI-H226 lung
CAKI-1 renal = test system: CAKI-1 renal
HOP-92 NSCLC = test system: HOP-92 NSCLC
UO-31 renal = test system: UO-31 renal
BT-549 breast = test system: BT-549 breast
HS 578T breast = test system: HS 578T breast
UACC-257 melanoma = test system: UACC-257 melanoma
A549 NSCLC = test system: A549 NSCLC
KM12 colon = test system: KM12 colon
HT29 colon = test system: HT29 colon
K-562 leukemia = test system: K-562 leukemia
SNB-19 CNS = test system: SNB-19 CNS
NCI-H23 lung = test system: NCI-H23 lung
IGROV1 ovarian = test system: IGROV1 ovarian
OVCAR-4 ovarian = test system: OVCAR-4 ovarian
SW-620 colon = test system: SW-620 colon
SR leukemia = test system: SR leukemia
786-0 renal = test system: 786-0 renal
SF-268 CNS = test system: SF-268 CNS

COc1cc(/C=N/n2cnc3oc(-c4ccccc4)cc3c2=N)cc(CN2CCCC2)c1O
GI50 (ACHN renal): 1.61 µM | TGI (ACHN renal): 3.18 µM | GI50 (MDA-MB-231 breast): 1.49 µM | TGI (MDA-MB-231 breast): 2.9 µM | GI50 (PC-3 prostate): 1.5 µM | TGI (PC-3 prostate): 3.13 µM | GI50 (DU-145 prostate): 1.83 µM | TGI (DU-145 prostate): 3.35 µM | GI50 (HOP-62 NSCLC): 2.02 µM | TGI (HOP-62 NSCLC): 5.04 µM | GI50 (T-47D breast): 1.96 µM | TGI (T-47D breast): 4.69 µM | GI50 (UACC-62 melanoma): 19.6 µM | TGI (UACC-62 melanoma): 40.8 µM | GI50 (HL-60(TB) leukemia): 3.51 µM | TGI (HL-60(TB) leukemia): 14.2 µM | GI50 (SNB-75 CNS): 0.856 µM | TGI (SNB-75 CNS): 2.26 µM | GI50 (SK-OV-3 ovarian): 18 µM | TGI (SK-OV-3 ovarian): 38.5 µM | GI50 (SF-539 CNS): 1.75 µM | TGI (SF-539 CNS): 3.46 µM | GI50 (RXF 393 renal): 1.35 µM | TGI (RXF 393 renal): 3.43 µM | GI50 (NCI-H522 lung): 2.22 µM | TGI (NCI-H522 lung): 5.79 µM | GI50 (MALME-3M melanoma): 1.9 µM | TGI (MALME-3M melanoma): 3.96 µM | GI50 (SK-MEL-5 melanoma): 3.49 µM | TGI (SK-MEL-5 melanoma): 15.9 µM | GI50 (EKVX NSCLC): 1.83 µM | TGI (EKVX NSCLC): 3.77 µM | GI50 (MDA-MB-435): 1.69 µM | TGI (MDA-MB-435): 3.19 µM | GI50 (SK-MEL-28 melanoma): 1.82 µM | TGI (SK-MEL-28 melanoma): 3.56 µM | GI50 (A498 renal): 12.9 µM | TGI (A498 renal): 40.2 µM | GI50 (SN12C renal): 1.58 µM | TGI (SN12C renal): 3.25 µM | GI50 (RPMI-8226 leukemia): 2.08 µM | TGI (RPMI-8226 leukemia): 4.82 µM | GI50 (CCRF-CEM leukemia): 1.96 µM | TGI (CCRF-CEM leukemia): 5.75 µM | GI50 (TK-10 renal): 26.4 µM | TGI (TK-10 renal): 49.2 µM | GI50 (MOLT-4 leukemia): 2.18 µM | TGI (MOLT-4 leukemia): 6.49 µM | GI50 (SK-MEL-2 melanoma): 21.2 µM | TGI (SK-MEL-2 melanoma): 47.3 µM | GI50 (NCI/ADR-RES ovarian): 1.96 µM | TGI (NCI/ADR-RES ovarian): 4.04 µM | GI50 (OVCAR-5 ovarian): 1.67 µM | TGI (OVCAR-5 ovarian): 3.21 µM | GI50 (SF-295 CNS): 1.89 µM | TGI (SF-295 CNS): 3.9 µM | GI50 (NCI-H226 lung): 5.84 µM | TGI (NCI-H226 lung): 34.1 µM | GI50 (CAKI-1 renal): 1.4 µM | TGI (CAKI-1 renal): 2.88 µM | GI50 (HOP-92 NSCLC): 1.92 µM | TGI (HOP-92 NSCLC): 13 µM | GI50 (UO-31 renal): 1.42 µM | TGI (UO-31 renal): 3.08 µM | GI50 (BT-549 breast): 23.6 µM | TGI (BT-549 breast): 58.4 µM | GI50 (HS 578T breast): 13.5 µM | TGI (HS 578T breast): 34 µM | GI50 (UACC-257 melanoma): 20.5 µM | TGI (UACC-257 melanoma): 43.8 µM

CCCCCc1ccc(S(=O)(=O)Nc2cccc(-c3csc(NC(=O)CCCCCN4CCN(C)CC4)n3)c2)cc1
GI50 (ACHN renal): 1.86 µM | TGI (ACHN renal): 3.56 µM | GI50 (A549 NSCLC): 1.94 µM | TGI (A549 NSCLC): 4.38 µM | GI50 (MDA-MB-231 breast): 1.85 µM | TGI (MDA-MB-231 breast): 3.89 µM | GI50 (PC-3 prostate): 2.2 µM | TGI (PC-3 prostate): 6.42 µM | GI50 (DU-145 prostate): 2.11 µM | TGI (DU-145 prostate): 4.32 µM | GI50 (T-47D breast): 1.96 µM | TGI (T-47D breast): 4.93 µM | GI50 (KM12 colon): 1.86 µM | TGI (KM12 colon): 3.49 µM | GI50 (SNB-75 CNS): 1.6 µM | TGI (SNB-75 CNS): 3.88 µM | GI50 (SF-539 CNS): 1.67 µM | TGI (SF-539 CNS): 3.09 µM | GI50 (HT29 colon): 1.86 µM | TGI (HT29 colon): 3.67 µM | GI50 (K-562 leukemia): 2.42 µM | TGI (K-562 leukemia): 17.5 µM | GI50 (SNB-19 CNS): 2.9 µM | TGI (SNB-19 CNS): 9.8 µM | GI50 (RXF 393 renal): 1.64 µM | TGI (RXF 393 renal): 3.35 µM | GI50 (NCI-H23 lung): 2.46 µM | TGI (NCI-H23 lung): 6.52 µM | GI50 (EKVX NSCLC): 2.07 µM | TGI (EKVX NSCLC): 5.29 µM | GI50 (SK-MEL-28 melanoma): 1.84 µM | TGI (SK-MEL-28 melanoma): 3.37 µM | GI50 (IGROV1 ovarian): 2.27 µM | TGI (IGROV1 ovarian): 5.29 µM | GI50 (A498 renal): 3.36 µM | TGI (A498 renal): 11.9 µM | GI50 (SN12C renal): 2.74 µM | TGI (SN12C renal): 8.65 µM | GI50 (RPMI-8226 leukemia): 1.83 µM | TGI (RPMI-8226 leukemia): 4.38 µM | GI50 (CCRF-CEM leukemia): 2.76 µM | TGI (CCRF-CEM leukemia): 13.7 µM | GI50 (TK-10 renal): 2.03 µM | TGI (TK-10 renal): 4.51 µM | GI50 (MOLT-4 leukemia): 2.98 µM | TGI (MOLT-4 leukemia): 9.5 µM | GI50 (OVCAR-4 ovarian): 2.74 µM | TGI (OVCAR-4 ovarian): 8.69 µM | GI50 (SK-MEL-2 melanoma): 1.76 µM | TGI (SK-MEL-2 melanoma): 3.47 µM | GI50 (NCI/ADR-RES ovarian): 8.99 µM | TGI (NCI/ADR-RES ovarian): 39.4 µM | GI50 (OVCAR-5 ovarian): 2.16 µM | TGI (OVCAR-5 ovarian): 5.13 µM | GI50 (SW-620 colon): 1.73 µM | TGI (SW-620 colon): 3.23 µM | GI50 (SF-295 CNS): 1.93 µM | TGI (SF-295 CNS): 3.95 µM | GI50 (SR leukemia): 1.96 µM | TGI (SR leukemia): 4.79 µM | GI50 (NCI-H226 lung): 2.55 µM | TGI (NCI-H226 lung): 7.16 µM | GI50 (786-0 renal): 1.86 µM | TGI (786-0 renal): 3.38 µM | GI50 (SF-268 CNS): 1.86 µM | TGI (SF-268 CNS): 3.93 µM | GI50 (HOP-92 NSCLC): 1.44 µM | TGI (HOP-92 NSCLC): 3.3 µM | GI50 (UO-31 renal): 1.62 µM | TGI (UO-31 renal): 3.23 µM | GI50 (BT-549 breast): 2.29 µM | TGI (BT-549 breast): 9.55 µM | GI50 (HS 578T breast): 1.92 µM | TGI (HS 578T breast): 4.7 µM | GI50 (UACC-257 melanoma): 1.64 µM | TGI (UACC-257 melanoma): 3.23 µM
